Laboratory results as given in the NIST ThermoML archive (doi:10.1016/j.fluid.2004.10.023).
Numbers after ± are expanded uncertainties.

Settings: Liquid, Closed cell (Static) method

vapor or sublimation pressure (318.4 K) [kPa] | Structure (SMILES) | also measured
436.55 ± 1.9 | CCCC [butane] | 
31.37 ± 0.42 | CCOC(C)=O [ethyl acetate] | 

More lines, now with the values behind:

Structure (SMILES) | vapor or sublimation pressure (318.4 K) [kPa] | also measured
C=CCC [1-butene] |  | vapor or sublimation pressure (318.42 K): 525.55 ± 2.3 kPa
CC(C)C [2-methylpropane] |  | vapor or sublimation pressure (318.39 K): 607.54 ± 2.6 kPa
C/C=C\C [(Z)-2-butene] | 391.45 ± 1.8 | 
C=C(C)C [2-methylpropene] | 538.15 ± 2.3 | 
